PubChem BioAssay (NCI)
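Method: 48-hour compound exposure of cells in 96-well plates, five concentrations, linear interpolation of endpoints. TGI: concentration producing complete growth inhibition.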

Legend:
Assay in all cases: NCI-60 cell line screen, 48 h
SNB-19 CNS = system: SNB-19 CNS
UO-31 renal = system: UO-31 renal
HL-60(TB) leukemia = system: HL-60(TB) leukemia
CAKI-1 renal = system: CAKI-1 renal
SR leukemia = system: SR leukemia
RPMI-8226 leukemia = system: RPMI-8226 leukemia
SK-OV-3 ovarian = system: SK-OV-3 ovarian
DU-145 prostate = system: DU-145 prostate
T-47D breast = system: T-47D breast
MALME-3M melanoma = system: MALME-3M melanoma
ACHN renal = system: ACHN renal
HS 578T breast = system: HS 578T breast
OVCAR-5 ovarian = system: OVCAR-5 ovarian
SK-MEL-2 melanoma = system: SK-MEL-2 melanoma
SF-539 CNS = system: SF-539 CNS
HCC-2998 colon = system: HCC-2998 colon
UACC-257 melanoma = system: UACC-257 melanoma
MOLT-4 leukemia = system: MOLT-4 leukemia
TK-10 renal = system: TK-10 renal
SF-268 CNS = system: SF-268 CNS
EKVX NSCLC = system: EKVX NSCLC
HCT-116 colon = system: HCT-116 colon
SNB-75 CNS = system: SNB-75 CNS
BT-549 breast = system: BT-549 breast
OVCAR-8 ovarian = system: OVCAR-8 ovarian
SF-295 CNS = system: SF-295 CNS
SK-MEL-28 melanoma = system: SK-MEL-28 melanoma
NCI-H522 lung = system: NCI-H522 lung
HCT-15 colon = system: HCT-15 colon
MDA-MB-231 breast = system: MDA-MB-231 breast
LOX IMVI melanoma = system: LOX IMVI melanoma
HOP-62 NSCLC = system: HOP-62 NSCLC
U251 CNS = system: U251 CNS
SN12C renal = system: SN12C renal
A549 NSCLC = system: A549 NSCLC
MCF7 breast = system: MCF7 breast
M14 melanoma = system: M14 melanoma
786-0 renal = system: 786-0 renal
COLO 205 colon = system: COLO 205 colon
K-562 leukemia = system: K-562 leukemia
OVCAR-3 ovarian = system: OVCAR-3 ovarian
SK-MEL-5 melanoma = system: SK-MEL-5 melanoma
OVCAR-4 ovarian = system: OVCAR-4 ovarian
NCI-H226 lung = system: NCI-H226 lung
HT29 colon = system: HT29 colon
MDA-MB-435 = system: MDA-MB-435
A498 renal = system: A498 renal
HOP-92 NSCLC = system: HOP-92 NSCLC
NCI/ADR-RES ovarian = system: NCI/ADR-RES ovarian
SW-620 colon = system: SW-620 colon
RXF 393 renal = system: RXF 393 renal
NCI-H23 lung = system: NCI-H23 lung
UACC-62 melanoma = system: UACC-62 melanoma
PC-3 prostate = system: PC-3 prostate
IGROV1 ovarian = system: IGROV1 ovarian
KM12 colon = system: KM12 colon
NCI-H460 lung = system: NCI-H460 lung
CCRF-CEM leukemia = system: CCRF-CEM leukemia

`CCCCC(=O)OC[n+]1ccc2c(C)c3[nH]c4ccc(OC)cc4c3c(C)c2c1` gave a TGI (SNB-19 CNS) of 4.35 µM, a TGI (UO-31 renal) of 4.08 µM and a TGI (HL-60(TB) leukemia) greater than 100 µM. The TGI (CAKI-1 renal) was 4.64 µM, the TGI (SR leukemia) was 1.04 µM and the TGI (RPMI-8226 leukemia) was 0.983 µM. It also gave a TGI (SK-OV-3 ovarian) of 2.93 µM, a TGI (DU-145 prostate) of 4.82 µM and a TGI (T-47D breast) of 14.2 µM. For the same compound, the TGI (MALME-3M melanoma) was greater than 33.3 µM, the TGI (ACHN renal) was 3.84 µM and the TGI (HS 578T breast) was 2.73 µM. For the same compound, the TGI (OVCAR-5 ovarian) was 5.61 µM, the TGI (SK-MEL-2 melanoma) was greater than 100 µM and the TGI (SF-539 CNS) was 1.92 µM. It also gave a TGI (HCC-2998 colon) of 1.8 µM, a TGI (UACC-257 melanoma) greater than 34.4 µM and a TGI (MOLT-4 leukemia) of 1.13 µM. It also gave a TGI (TK-10 renal) of 15.2 µM, a TGI (SF-268 CNS) greater than 100 µM and a TGI (EKVX NSCLC) of 3.6 µM. It also gave a TGI (HCT-116 colon) of 1.37 µM and a TGI (SNB-75 CNS) of 27.2 µM.
`CC(C)C[C@H](NC(=O)[C@H](CCc1ccccc1)NC(=O)c1ccc2ccccc2n1)B(O)O` gave a TGI (BT-549 breast) of 0.152 µM, a TGI (OVCAR-8 ovarian) of 0.86 µM and a TGI (SF-295 CNS) of 0.305 µM. For the same compound, the TGI (SNB-19 CNS) was 13.1 µM, the TGI (SK-MEL-28 melanoma) was 0.055 µM and the TGI (UO-31 renal) was 0.588 µM. The TGI (NCI-H522 lung) was less than 0.0405 µM, the TGI (HCT-15 colon) was 0.52 µM and the TGI (HL-60(TB) leukemia) was 0.0955 µM. The TGI (MDA-MB-231 breast) was 0.305 µM, the TGI (LOX IMVI melanoma) was 0.247 µM and the TGI (HOP-62 NSCLC) was 0.658 µM. The TGI (CAKI-1 renal) was 4.73 µM, the TGI (U251 CNS) was 6.11 µM and the TGI (SN12C renal) was 0.486 µM. For the same compound, the TGI (A549 NSCLC) was 13.4 µM, the TGI (RPMI-8226 leukemia) was greater than 39.1 µM and the TGI (MCF7 breast) was 4.2 µM. For the same compound, the TGI (M14 melanoma) was 0.0289 µM, the TGI (SK-OV-3 ovarian) was 10.2 µM and the TGI (786-0 renal) was 0.706 µM. The TGI (COLO 205 colon) was 5.18 µM, the TGI (K-562 leukemia) was greater than 100 µM and the TGI (DU-145 prostate) was 3.49 µM. The TGI (OVCAR-3 ovarian) was 0.0818 µM, the TGI (SK-MEL-5 melanoma) was 0.647 µM and the TGI (OVCAR-4 ovarian) was 3.09 µM. For the same compound, the TGI (NCI-H226 lung) was 0.367 µM, the TGI (HT29 colon) was 0.144 µM and the TGI (MDA-MB-435) was less than 0.0123 µM. For the same compound, the TGI (A498 renal) was 4.38 µM, the TGI (ACHN renal) was 0.176 µM and the TGI (HOP-92 NSCLC) was 0.28 µM. The TGI (HS 578T breast) was 0.442 µM, the TGI (NCI/ADR-RES ovarian) was 4.66 µM and the TGI (OVCAR-5 ovarian) was 0.617 µM. It also gave a TGI (SK-MEL-2 melanoma) of 0.0407 µM, a TGI (SW-620 colon) of less than 0.0338 µM and a TGI (SF-539 CNS) of less than 0.0225 µM. The TGI (HCC-2998 colon) was 0.149 µM, the TGI (RXF 393 renal) was less than 0.017 µM and the TGI (NCI-H23 lung) was 0.338 µM. The TGI (UACC-62 melanoma) was 1.2 µM, the TGI (UACC-257 melanoma) was 0.0676 µM and the TGI (MOLT-4 leukemia) was 4.76 µM. The TGI (TK-10 renal) was 0.407 µM, the TGI (SF-268 CNS) was 0.397 µM and the TGI (PC-3 prostate) was 1.19 µM. The TGI (EKVX NSCLC) was 3.27 µM, the TGI (IGROV1 ovarian) was 0.972 µM and the TGI (HCT-116 colon) was 0.0595 µM. It also gave a TGI (SNB-75 CNS) of 0.175 µM, a TGI (KM12 colon) of 0.295 µM and a TGI (NCI-H460 lung) of 2.47 µM.
Work on `CC(C)(C)c1ccc(O)c(C(O)c2cccnc2)c1` (stereo unspecified) yielded a TGI (BT-549 breast) greater than 100 µM, a TGI (OVCAR-8 ovarian) greater than 100 µM and a TGI (SK-MEL-28 melanoma) greater than 100 µM. The TGI (UO-31 renal) was greater than 100 µM, the TGI (CCRF-CEM leukemia) was greater than 100 µM and the TGI (NCI-H522 lung) was greater than 100 µM. For the same compound, the TGI (HCT-15 colon) was greater than 100 µM, the TGI (MDA-MB-231 breast) was greater than 100 µM and the TGI (HOP-62 NSCLC) was greater than 100 µM. It also gave a TGI (CAKI-1 renal) greater than 100 µM, a TGI (A549 NSCLC) greater than 100 µM and a TGI (786-0 renal) greater than 100 µM. The TGI (COLO 205 colon) was greater than 100 µM, the TGI (K-562 leukemia) was greater than 100 µM and the TGI (DU-145 prostate) was greater than 100 µM. The TGI (OVCAR-3 ovarian) was greater than 100 µM, the TGI (T-47D breast) was 53.7 µM and the TGI (SK-MEL-5 melanoma) was greater than 100 µM. It also gave a TGI (NCI-H226 lung) greater than 100 µM, a TGI (MALME-3M melanoma) greater than 100 µM and a TGI (HT29 colon) greater than 100 µM. It also gave a TGI (ACHN renal) greater than 100 µM, a TGI (HS 578T breast) greater than 100 µM and a TGI (NCI/ADR-RES ovarian) greater than 100 µM. The TGI (OVCAR-5 ovarian) was greater than 100 µM, the TGI (SW-620 colon) was greater than 100 µM and the TGI (SF-539 CNS) was greater than 100 µM. For the same compound, the TGI (HCC-2998 colon) was greater than 100 µM, the TGI (RXF 393 renal) was greater than 100 µM and the TGI (NCI-H23 lung) was greater than 100 µM. For the same compound, the TGI (UACC-62 melanoma) was greater than 100 µM, the TGI (MOLT-4 leukemia) was greater than 100 µM and the TGI (SF-268 CNS) was greater than 100 µM. It also gave a TGI (EKVX NSCLC) greater than 100 µM, a TGI (IGROV1 ovarian) greater than 100 µM and a TGI (HCT-116 colon) greater than 100 µM. The TGI (SNB-75 CNS) was greater than 100 µM, the TGI (KM12 colon) was greater than 100 µM and the TGI (NCI-H460 lung) was greater than 100 µM.
